# Laboratory results as given in patent US7851449B2, “Peptide, pharmaceutical composition, and a method of treating microcirculation disorders” (Obschestvo S Ogranichennoi Otvetstvennostyu “SIA Peptides”, priority 2006, dated 2010).
# Marks after values point to notes of the source that are not given here. Peptide text beside a SMILES is read from it.
# Columns and labels:
# [1] = tested on: white mongrel male rats; assay: Sub-acute toxicity, 90 days daily intramuscular administration; type: in vivo; settings: daily i.m. 90 days, doses exceeding the therapeutic one by 100-1000 times
# Procedure: The study of sub-acute toxicity was performed on 60 white mongrel male rats with body weight of 160-240 g. […] Morphology and properties of the animals' peripheral blood were studied before the administration of the substance, as well as on the 30th, 60th and 90th day after the beginning of the administration. Upon completion of the experiment biochemical and coagulologic indices of the blood were also evaluated.
# [2] = tested on: vascular wall explants; assay: Development of vascular wall explants (area index); type: cell-based, Wistar rats
# Procedure: The experiments were conducted on 32 fragments of vascular wall from the peripheral artery of Wistar rats with body weight of 150-200 g. Nutritional medium for explants cultivation consisted of 35% Eagle's solution, 25% calf fetal serum, 35% Hanx solution, 5% chicken embryonic extract, with the addition of glucose (0.6%), insulin (0,5 units/ml), penicillin (100 units/ml), glutamine (2 mM). […] Peptide H-Lys-Glu-Asp-OH was added into the medium, in the concentration of 1, 10, 100 and 200 ng/ml.
# Area index (AI), i.e. the ratio of total explant area together with the growth zone to the initial area of vascular wall fragment served as the criterion of biologic activity. AI values were expressed in percent, control AI values being considered as 100%.
# [3] = tested on: rats with experimental parodontitis; assay: Microcirculation in rats with experimental parodontitis (gingiva biomicroscopy, laser dopplerography); type: in vivo; design: capillaries density per area unit: unit not given here; settings: for diameter of the capillaries: in µm
# Procedure: The experiments were conducted on 45 white mongrel male and female rats with body weight of 180-200 g. The model of light parodontitis was induced by the method of differentiated feeding of rats with standard granulated PK-120 forage for 1.5 months.
# The animals were divided into 3 groups 15 rats in each: the animals of the first group, suffering from parodontitis didn't receive any treatment, rats in the second group suffering from experimental parodontitis were injected with 0.1 ml of sterile 0.9% NaCl solution into the mucous of the gingiva transitional fold (control); the animals of the third group with experimental parodontitis were subjected to a daily single injection of H-Lys-Glu-Asp-OH peptide in the dose of 2 μg in the 0.1 ml of sterile 0,9% NaCl solution into the mucous gingiva transitional fold with simultaneous rubbing in of peptide solution for 10 days.
# During all experiments there was conducted a biomicroscopy of mucous membrane of the rats gingiva under nembutal anaesthesia with usage of contact object lenses and estimated the blood flow rate in capillaries by means of laser capillary blood flow analyzer LAKK-01. The studies were conducted in 3 areas of the gingiva, in the free gingiva, attached gingiva and transitional fold in case of 100 magnification. Clinical signs of the parodontitis were evaluated visually.
# [4] = tested on: skin capillaries of patients with hypovitaminosis; assay: Skin capillary resistance in patients with hypovitaminosis (Rumpel-Leede-Konchalovskiy cuff test); type: in vivo
# Procedure: The study was conducted on 25 patients aged 19-35, reporting signs of hypovitaminosis in spring. The patients were randomly divided into 2 groups.
# The patients of the main group were divided into three sub-groups depending on the hypovitaminosis severity. Patients suffering from the severe hypovitaminosis were subjected to a daily single intramuscular injection of pharmaceutical composition containing H-Lys-Glu-Asp-OH peptide as its active base, in the dose of 5.0 mg in 1.0 ml of sterile 0.9% NaCl solution for 10 days; patients with moderately sever hypovitaminosis—in the dose of 100.0 μg, and patients with mild signs of hypovitaminosis—in the dose of 1.0 μg.
# Control group consisted of 18 patients, subjected to an injection of physiological solution following the same scheme. Both groups received only balanced vitamin containing diet.
# The estimation of the H-Lys-Glu-Asp-OH peptide effect on resistance of skin capillaries was conducted by means of Rumpel-Leede-Konchalovskiy capillary fragility test. A blood-pressure cuff was applied to the upper part of the arm of the patients. Then there was maintained pressure up to 200 mmHg for 3 minutes. Skin capillary resistance was evaluated on the area of the dosed load on skin capillaries (under the cuff). Hemorrhages were counted with a help of the magnifying glass.
# Skin capillary resistance was graded according to the five-point scale: […]
# [5] = tested on: patients with purpura senilis; assay: Hemostasis indices and Hess test in patients with purpura senilis; type: in vivo
# Procedure: The study was conducted on 23 patients aged 70-82, suffering from purpura senilis, who complained of frequent spontaneous hemorrhages on the face, neck, forearms and hands. The patients reported progressive development of the disease.
# The patients were randomly divided into two groups. The main group consisted of 12 patients, who were injected with pharmaceutical composition, containing peptide H-Lys-Glu-Asp-OH as its active base, in the dose of 100 μg in 1.0 ml of physiological solution daily intramuscularly for 10 days. Control group consisted of 11 patients, injected with sterile physiological solution following the same scheme.
# Complains of the patients were analyzed in dynamics, also there were conducted general blood and urine tests, blood biochemical test. In order to study hemostasis there were made blood coagulogramm and Hess test with a tourniquet.
# [6] = tested on: male guinea pigs; settings: in vivo
# Procedure: (§1) The studies of chronic toxicity were conducted for 6 months, basing on the term of recommended clinical administration of the substance, on 96 male guinea pigs with body weight of 300-340 g. Experimental animals received the peptide daily, once a day, intramuscularly, for 6 months in the doses of 1 μg/kg, 0.1 mg/kg, 1 mg/kg in 0.5 ml of sterile 0.9% NaCl solution. Control animals received sterile 0.9% NaCl solution in the same volume and by the same schedule. Traditional methods were used for the evaluation of the following indices of the animals' peripheric blood: the quantity of erythrocytes, hemoglobin, reticulocytes, thrombocytes, leukocytes, leukocyte formula, erythrocyte sedimentation rate (ESR), erythrocyte resistance. Alongside with that, the content of total protein in the serum was identified using Lowry's method, as well as potassium and sodium content using the method of plasma spectrophotometry. Upon the completion of the experiment pathomorphologic studies of animal brain and spinal cord, spinal cord ganglia, thyroid gland, parathyroid glands, adrenal glands, testis, pituitary body, heart, lungs, aorta, liver, kidneys, urinary bladder, pancreas, stomach, small intestine, large intestine, thymus, spleen, lymph nodes and bone marrow were performed.
# [7] = tested on: male guinea pigs; assay: Chronic toxicity, 6 months daily intramuscular administration; peripheric blood morphology and biochemical indices; settings: long-term administration
# Procedure: as §1
smiles,measurement,setting,value
"NCCCCC(N)C(=O)NC(CCC(=O)O)C(=O)NC(CC(=O)O)C(=O)O (stereo not drawn) [H-Lys-Glu-Asp-OH, lysyl-glutamyl-asparagine acid] (H-Lys-Glu-Asp-OH; configuration not given here)",side effects in long-term administration (subacute toxicity),[1],absence of any side effects
same,Area index (AI) growth as compared to the control AI,"[2]; 100 ng/ml, 3rd day of cultivation, statistically significant",24%
same,effect on vascular wall explants after longer cultivation,"[2]; 7 days of cultivating, same concentrations",same stimulating effect
same,biomicroscopy of gingival mucous membrane,"[3]; attached gingiva and transitional fold, 2 μg daily for 10 days",complete correction of the microcirculation
same,index of microcirculation (IM),"[3]; attached gingiva, 2 μg daily for 10 days, NaCl control 0.63±0.04",0.22±0.05
same,diameter of the capillaries,"[3]; attached gingiva, 2 μg daily for 10 days, NaCl control 9.8±0.35",7.8±0.20
same,blood flow rate (laser dopplerography),"[3]; attached gingiva, 2 μg daily for 10 days, NaCl control 17±0.7",20±1.1 conv. units
same,capillaries density per area unit,"[3]; average of gingiva parts, 2 μg daily for 10 days, norm 29.3±2.3, NaCl control 30±1.5",34±2.7
same,diameter of the capillaries,"[3]; free gingiva, 2 μg daily for 10 days, NaCl control 12.3±0.36 (μm printed only)",8.2±0.1
same,blood flow rate (laser dopplerography),"[3]; free gingiva, 2 μg daily for 10 days, norm 18±1.3, NaCl control 15±1.5",20±0.9 conv. units
same,index of microcirculation (IM),"[3]; free gingiva, 2 μg daily into gingiva for 10 days, normal 0.21±0.30, NaCl control 0.75±0.03",0.29±0.15
same,index of microcirculation (IM),"[3]; transitional fold, 2 μg daily for 10 days, NaCl control 0.39±0.02",0.20±0.18
same,diameter of the capillaries,"[3]; transitional fold, 2 μg daily for 10 days, NaCl control 9.1±0.09",6.57±0.1
same,blood flow rate (laser dopplerography),"[3]; transitional fold, 2 μg daily for 10 days, NaCl control 19±1.2",19±2.3 conv. units
same,Cuff test indices,"[4]; After administration, daily i.m. 1.0 μg, 100.0 μg or 5.0 mg by severity, 10 days, P < 0.05 vs before",II* (from 6 to 15)
same,Cuff test indices,[4]; Before administration (baseline of the peptide group),III-IV
same,number of skin hemorrhages,"[4]; before treatment, patients of both groups",30-47
same,number of skin hemorrhages,"[4]; main group after the treatment, control group unchanged",6-8
same,Ethanol test,"[5]; 100 μg daily i.m. 10 days, healthy 0, control 43.8",14.3** % of the positive cases
same,Fibrinogen,"[5]; 100 μg daily i.m. 10 days, healthy 3.2 ± 0.4, control 2.9 ± 0.1",2.5 ± 0.1 g/L
same,Prothrombin time,"[5]; 100 μg daily i.m. 10 days, healthy 12.5 ± 0.1, control 12.4 ± 0.4",13.3 ± 0.1 s
same,Thrombin time,"[5]; 100 μg daily i.m. 10 days, healthy 18.2 ± 0.6, control 16.0 ± 0.2",17.1 ± 0.2 c
same,Activated partial thromboplastin time,"[5]; 100 μg daily i.m. 10 days, healthy 32.3 ± 2.1, control 48.0 ± 1.3",58.9 ± 0.7 s
same,Euglobulin fibrinolysis,"[5]; 100 μg daily i.m. 10 days, healthy 150.0 ± 6.8, control 163.5 ± 5.0",156.2 ± 3.9 min
same,Time of recalcification,"[5]; 100 μg daily i.m. 10 days, healthy 178.0 ± 14.0, control 147.3 ± 4.2",164.2 ± 2.4
same,Hess test (vascular walls durability),[5]; after administration of the pharmaceutical composition,reduction in the number of hemorrhages
same,side effects in long-term administration (chronic toxicity),[6]; guinea pig,absence of any side effects
same,changes in guinea pig blood morphology and biochemical indices,[6],no statistically significant changes
same,"pathologic alterations (general status, blood indices, organ morphology, cardiovascular, respiratory, liver and kidney functions)",[7],no pathologic alterations
